Experimental data taken from ChEMBL document CHEMBL1158121, “Antihyperglycemic activity and chemical constituents of Eysenhardtia platycarpa” (2006).

Test system: Rattus norvegicus
Test: Antihyperglycemic activity in Streptozotocin-induced diabetic Wistar rat assessed as decrease in blood glucose level at 31 mg/kg, po after 7 hrs
Assay type: functional
Parameters: scale not given: the % may be the effect or the level left

## CC(=O)O[C@H]1CC[C@]2(C)[C@H]3CC=C4[C@@H]5CC(C)(C)CC[C@]5(C(=O)O)CC[C@@]4(C)[C@]3(C)CC[C@H]2C1(C)C [ACETYL OLEANOLIC ACID]
  Activity: -26.3%
